# Test results as given in ChEMBL document CHEMBL2150900, “β-Lactam synthon-interceded diastereoselective synthesis of functionalized octahydroindole-based molecular scaffolds and their in vitro cytotoxic evaluation” (Eur J Med Chem, 2012).
# Test: Cytotoxicity against human WHCO1 cells after 48 hrs by MTT assay
# Assay type: functional, cell-based
# Details: WHCO1, 48 h
row,SMILES,IC50 [µM]
1,O=C1NC(=O)[C@@H]2CC[C@@H](I)[C@H]3[C@@H]2[C@@H]1[C@@H](c1ccc(Cl)cc1)N3c1ccccc1 (racemic),17.6
2,COC(=O)[C@H]1[C@H]2[C@H]([C@H](I)CC[C@@H]2C(=O)OC)N(c2ccccc2)[C@H]1c1ccc(OC)cc1 (racemic),37.1
3,Cc1ccc(N2[C@@H]3[C@@H]4[C@@H](C(=O)NC(=O)[C@@H]4CC[C@H]3I)[C@H]2c2ccc(Cl)cc2)cc1 (racemic),13
4,COC(=O)[C@H]1[C@H]2[C@H]([C@H](I)CC[C@@H]2C(=O)OC)N(c2ccc(C)cc2)[C@H]1c1ccc(OC)cc1 (racemic),37.8
5,COC(=O)[C@H]1[C@H]2[C@H]([C@H](I)CC[C@@H]2C(=O)OC)N(c2ccccc2)[C@H]1c1ccc(Cl)cc1 (racemic),36.8
6,COC(=O)[C@H]1[C@H]2[C@H]([C@H](I)CC[C@@H]2C(=O)OC)N(c2ccccc2)[C@H]1c1ccccc1 (racemic),88.1
7,Cc1ccc([C@@H]2[C@@H]3C(=O)NC(=O)[C@@H]4CC[C@@H](I)[C@@H]([C@H]34)N2c2ccc(C)cc2)cc1 (racemic),14.1
8,COC(=O)[C@H]1[C@H]2[C@H]([C@H](I)CC[C@@H]2C(=O)OC)N(c2ccc(C)cc2)[C@H]1c1ccccc1 (racemic),40.3
